In the kinase profiling compilation of Christmann-Franck et al. (2016):

Legend:
Assay in all cases: radiometric filter-binding kinase assay
[1] = molecular target: MAP2K1 (human) (UniProt Q02750)
[2] = molecular target: JAK2 JH1 JH2 (human) (UniProt O60674)
[3] = molecular target: EPHA2 (human) (UniProt P29317)
[4] = molecular target: SRPK1 (human) (UniProt Q96SB4)
[5] = molecular target: RPS6KA5 KD1 KD2 (human) (UniProt O75582)
[6] = molecular target: CaMK1 (human) (UniProt Q14012)
[7] = molecular target: EPHB2 (human) (UniProt P29323)
[8] = molecular target: MAPK15 (human) (UniProt Q8TD08)
[9] = molecular target: INSRR (human) (UniProt P14616)
[10] = molecular target: HIPK3 (human) (UniProt Q9H422)
[11] = molecular target: PHKG1 (human) (UniProt Q16816)
[12] = molecular target: NUAK1 (human) (UniProt O60285)
[13] = system: LCK (mouse); details: accession and sequence are those of the human protein
[14] = molecular target: MST4 (human) (UniProt Q9P289)
[15] = molecular target: MKNK1 (human) (UniProt Q9BUB5)
[16] = molecular target: BTK (human) (UniProt Q06187)
[17] = molecular target: ERBB4 (human) (UniProt Q15303)
[18] = molecular target: MARK2 (human) (UniProt Q7KZI7)
[19] = molecular target: MAPKAPK2 (human) (UniProt P49137)
[20] = molecular target: CAMKK2 (human) (UniProt Q96RR4)
[21] = molecular target: NEK2 (human) (UniProt P51955)
[22] = molecular target: RIPK2 (human) (UniProt O43353)
[23] = molecular target: MARK1 (human) (UniProt Q9P0L2)
[24] = molecular target: EPHA4 (human) (UniProt P54764)
[25] = molecular target: CDK2 CCNA2 (human) (UniProt P20248+P24941)
[26] = molecular target: BRSK1 (human) (UniProt Q8TDC3)
[27] = molecular target: PRKCA (human) (UniProt P17252)
[28] = molecular target: INSR (human) (UniProt P06213)
[29] = molecular target: NEK6 (human) (UniProt Q9HC98)
[30] = molecular target: MINK1 (human) (UniProt Q8N4C8)
[31] = molecular target: DYRK2 (human) (UniProt Q92630)
[32] = molecular target: PRKACA (human) (UniProt P17612)
[33] = molecular target: PAK7 (human) (UniProt Q9P286)
[34] = system: PRKAA1 or PRKAA2 (rat); details: accession and sequence are those of the human protein
[35] = molecular target: CSK (human) (UniProt P41240)

Sequence of MAPKAPK2 (human) (P49137 whole entry, looked up): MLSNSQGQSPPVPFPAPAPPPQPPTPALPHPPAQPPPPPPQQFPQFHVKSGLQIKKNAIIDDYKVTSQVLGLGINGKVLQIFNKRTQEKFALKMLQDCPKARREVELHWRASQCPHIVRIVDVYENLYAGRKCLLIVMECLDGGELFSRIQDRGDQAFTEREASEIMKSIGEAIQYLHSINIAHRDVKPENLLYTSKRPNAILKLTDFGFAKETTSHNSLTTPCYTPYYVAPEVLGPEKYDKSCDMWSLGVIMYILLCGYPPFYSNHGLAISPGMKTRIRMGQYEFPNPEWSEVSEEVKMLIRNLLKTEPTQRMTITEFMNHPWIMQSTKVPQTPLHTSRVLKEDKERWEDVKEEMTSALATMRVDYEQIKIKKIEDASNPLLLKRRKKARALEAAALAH
Sequence of INSRR (human) (P14616 whole entry, looked up): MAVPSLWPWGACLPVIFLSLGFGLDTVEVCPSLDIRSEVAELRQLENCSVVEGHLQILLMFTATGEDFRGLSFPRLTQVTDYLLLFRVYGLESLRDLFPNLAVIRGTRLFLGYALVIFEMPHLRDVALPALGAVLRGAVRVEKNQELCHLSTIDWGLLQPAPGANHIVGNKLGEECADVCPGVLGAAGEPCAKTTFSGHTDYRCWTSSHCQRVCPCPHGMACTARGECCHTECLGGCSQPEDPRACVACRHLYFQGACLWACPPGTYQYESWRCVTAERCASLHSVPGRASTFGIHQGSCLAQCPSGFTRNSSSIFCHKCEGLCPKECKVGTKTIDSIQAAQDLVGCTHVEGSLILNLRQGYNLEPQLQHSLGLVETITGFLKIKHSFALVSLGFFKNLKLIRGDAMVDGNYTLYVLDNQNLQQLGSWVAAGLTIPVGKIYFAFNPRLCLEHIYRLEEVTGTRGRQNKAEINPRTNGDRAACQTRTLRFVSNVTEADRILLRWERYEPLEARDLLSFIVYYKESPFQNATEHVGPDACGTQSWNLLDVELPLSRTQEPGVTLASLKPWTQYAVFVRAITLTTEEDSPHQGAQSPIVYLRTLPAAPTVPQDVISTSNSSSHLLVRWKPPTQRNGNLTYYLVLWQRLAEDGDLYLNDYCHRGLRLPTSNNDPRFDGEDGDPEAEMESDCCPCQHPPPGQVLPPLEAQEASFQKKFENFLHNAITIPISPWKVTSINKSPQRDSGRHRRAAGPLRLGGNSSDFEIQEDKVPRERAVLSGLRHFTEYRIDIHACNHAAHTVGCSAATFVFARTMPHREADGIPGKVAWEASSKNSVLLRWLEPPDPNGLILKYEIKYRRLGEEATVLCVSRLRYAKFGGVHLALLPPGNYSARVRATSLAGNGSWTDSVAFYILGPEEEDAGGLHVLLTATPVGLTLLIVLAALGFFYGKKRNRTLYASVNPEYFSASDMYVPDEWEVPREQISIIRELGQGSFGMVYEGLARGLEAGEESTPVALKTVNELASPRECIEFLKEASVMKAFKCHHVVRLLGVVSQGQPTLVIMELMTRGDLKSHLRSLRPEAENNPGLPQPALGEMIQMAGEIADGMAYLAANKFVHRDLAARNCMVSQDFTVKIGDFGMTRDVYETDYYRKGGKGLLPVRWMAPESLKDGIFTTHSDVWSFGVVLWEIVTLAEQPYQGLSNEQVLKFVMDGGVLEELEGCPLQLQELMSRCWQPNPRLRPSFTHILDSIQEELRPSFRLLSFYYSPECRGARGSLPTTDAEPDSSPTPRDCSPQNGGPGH
Sequence of RIPK2 (human) (O43353 whole entry, looked up): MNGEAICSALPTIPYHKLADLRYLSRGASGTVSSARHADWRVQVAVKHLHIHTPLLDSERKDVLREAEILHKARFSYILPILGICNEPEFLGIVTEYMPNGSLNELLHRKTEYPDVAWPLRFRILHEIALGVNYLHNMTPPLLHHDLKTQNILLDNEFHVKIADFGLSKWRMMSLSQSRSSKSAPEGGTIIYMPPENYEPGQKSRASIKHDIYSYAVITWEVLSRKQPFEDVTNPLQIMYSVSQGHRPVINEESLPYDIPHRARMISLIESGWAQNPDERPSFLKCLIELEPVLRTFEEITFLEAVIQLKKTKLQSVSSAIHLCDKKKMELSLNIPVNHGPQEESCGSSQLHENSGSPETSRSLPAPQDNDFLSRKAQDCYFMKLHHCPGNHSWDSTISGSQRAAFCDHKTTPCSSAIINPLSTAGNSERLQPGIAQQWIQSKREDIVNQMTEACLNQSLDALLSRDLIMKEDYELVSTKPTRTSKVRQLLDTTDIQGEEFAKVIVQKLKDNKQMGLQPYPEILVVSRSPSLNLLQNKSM
Sequence of PAK7 (human) (Q9P286 whole entry, looked up): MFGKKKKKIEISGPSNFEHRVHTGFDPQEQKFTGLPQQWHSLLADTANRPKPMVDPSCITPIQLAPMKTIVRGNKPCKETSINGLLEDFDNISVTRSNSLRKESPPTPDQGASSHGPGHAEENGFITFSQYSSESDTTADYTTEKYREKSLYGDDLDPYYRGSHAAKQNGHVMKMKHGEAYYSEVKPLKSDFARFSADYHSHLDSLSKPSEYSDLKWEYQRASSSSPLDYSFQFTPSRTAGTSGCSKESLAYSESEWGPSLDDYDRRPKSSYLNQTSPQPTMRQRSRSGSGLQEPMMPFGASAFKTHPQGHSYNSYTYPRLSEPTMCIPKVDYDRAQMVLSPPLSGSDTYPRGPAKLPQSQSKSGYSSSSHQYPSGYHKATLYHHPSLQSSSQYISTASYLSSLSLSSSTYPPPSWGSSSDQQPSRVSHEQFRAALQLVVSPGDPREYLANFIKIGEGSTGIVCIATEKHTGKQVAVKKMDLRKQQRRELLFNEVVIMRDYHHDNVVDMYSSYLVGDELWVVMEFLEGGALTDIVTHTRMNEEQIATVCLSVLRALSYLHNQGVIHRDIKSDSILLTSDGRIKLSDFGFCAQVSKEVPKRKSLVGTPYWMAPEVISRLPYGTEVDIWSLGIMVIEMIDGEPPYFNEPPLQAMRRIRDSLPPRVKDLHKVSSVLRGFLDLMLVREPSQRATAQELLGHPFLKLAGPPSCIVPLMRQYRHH
Sequence of DYRK2 (human) (Q92630 whole entry, looked up): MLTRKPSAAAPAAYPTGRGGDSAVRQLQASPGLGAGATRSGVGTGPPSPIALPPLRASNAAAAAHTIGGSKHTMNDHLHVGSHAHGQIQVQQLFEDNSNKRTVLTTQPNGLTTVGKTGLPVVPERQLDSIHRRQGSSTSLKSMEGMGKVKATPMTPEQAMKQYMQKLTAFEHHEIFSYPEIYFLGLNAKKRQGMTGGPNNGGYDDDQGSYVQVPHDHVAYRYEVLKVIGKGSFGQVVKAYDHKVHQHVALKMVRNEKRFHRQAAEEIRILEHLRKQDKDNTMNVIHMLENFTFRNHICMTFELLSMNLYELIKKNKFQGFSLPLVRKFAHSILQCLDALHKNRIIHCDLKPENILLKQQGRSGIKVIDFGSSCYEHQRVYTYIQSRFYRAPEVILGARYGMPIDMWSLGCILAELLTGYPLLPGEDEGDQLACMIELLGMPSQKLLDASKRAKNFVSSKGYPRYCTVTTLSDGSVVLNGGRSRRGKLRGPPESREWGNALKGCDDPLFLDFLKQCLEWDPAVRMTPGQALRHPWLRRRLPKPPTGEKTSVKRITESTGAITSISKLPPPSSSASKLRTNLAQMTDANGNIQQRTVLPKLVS
Sequence of NEK2 (human) (P51955 whole entry, looked up): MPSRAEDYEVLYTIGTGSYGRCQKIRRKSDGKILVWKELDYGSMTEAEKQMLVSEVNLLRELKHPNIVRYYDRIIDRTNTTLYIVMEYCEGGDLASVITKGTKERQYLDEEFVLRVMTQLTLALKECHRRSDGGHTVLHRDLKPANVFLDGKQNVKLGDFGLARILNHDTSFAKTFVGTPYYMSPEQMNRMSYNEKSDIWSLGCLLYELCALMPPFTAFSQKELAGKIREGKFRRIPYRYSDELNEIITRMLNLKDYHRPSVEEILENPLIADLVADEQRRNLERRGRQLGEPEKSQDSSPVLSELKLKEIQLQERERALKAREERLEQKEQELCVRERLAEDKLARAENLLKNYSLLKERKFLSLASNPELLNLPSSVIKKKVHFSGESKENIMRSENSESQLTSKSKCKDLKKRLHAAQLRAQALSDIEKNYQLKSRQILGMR
Sequence of CaMK1 (human) (Q14012 whole entry, looked up): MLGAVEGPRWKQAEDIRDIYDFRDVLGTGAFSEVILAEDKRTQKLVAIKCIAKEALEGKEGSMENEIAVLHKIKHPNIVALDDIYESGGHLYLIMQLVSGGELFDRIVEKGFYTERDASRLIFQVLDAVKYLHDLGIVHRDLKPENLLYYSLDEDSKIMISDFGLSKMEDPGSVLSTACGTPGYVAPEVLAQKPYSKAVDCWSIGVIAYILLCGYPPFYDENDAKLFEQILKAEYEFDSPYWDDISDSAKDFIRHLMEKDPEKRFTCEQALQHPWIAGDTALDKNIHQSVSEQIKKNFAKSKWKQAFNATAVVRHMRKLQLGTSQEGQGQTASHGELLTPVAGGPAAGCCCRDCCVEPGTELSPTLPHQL

For O=C(O)c1ccc(-c2c[nH]c3ncc(-c4ccccc4)cc23)cc1C1CCCC1, the residual activity ([1]; compound 0.1 µM) was 105%, the residual activity ([1]; compound 1.0 µM) was 34% and the residual activity ([1]; compound 10.0 µM) was 12%. The residual activity ([2]; compound 0.1 µM) was 24%, the residual activity ([3]; compound 0.1 µM) was 92% and the residual activity ([3]; compound 1.0 µM) was 97%. It also gave a residual activity ([3]; compound 10.0 µM) of 85%, a residual activity ([4]; compound 0.1 µM) of 82% and a residual activity ([4]; compound 1.0 µM) of 104%. It also gave a residual activity ([4]; compound 10.0 µM) of 50%, a residual activity ([5]; compound 0.1 µM) of 94% and a residual activity ([5]; compound 1.0 µM) of 103%. For the same compound, the residual activity ([5]; compound 10.0 µM) was 62%, the residual activity ([6]; compound 0.1 µM) was 104% and the residual activity ([6]; compound 1.0 µM) was 99%. For the same compound, the residual activity ([6]; compound 10.0 µM) was 80%, the residual activity ([7]; compound 0.1 µM) was 86% and the residual activity ([8]; compound 0.1 µM) was 23%. The residual activity ([8]; compound 1.0 µM) was 32%, the residual activity ([8]; compound 10.0 µM) was 23% and the residual activity ([9]; compound 0.1 µM) was 98%. It also gave a residual activity ([9]; compound 1.0 µM) of 58%, a residual activity ([9]; compound 10.0 µM) of 26% and a residual activity ([10]; compound 0.1 µM) of 100%. For the same compound, the residual activity ([11]; compound 0.1 µM) was 34%, the residual activity ([11]; compound 1.0 µM) was 3% and the residual activity ([11]; compound 10.0 µM) was 0%. For the same compound, the residual activity ([12]; compound 0.1 µM) was 45%, the residual activity ([12]; compound 1.0 µM) was 15% and the residual activity ([12]; compound 10.0 µM) was 10%. For the same compound, the residual activity ([13]; compound 0.1 µM) was 109%, the residual activity ([13]; compound 1.0 µM) was 79% and the residual activity ([14]; compound 0.1 µM) was 81%. For the same compound, the residual activity ([14]; compound 1.0 µM) was 68%, the residual activity ([14]; compound 10.0 µM) was 13% and the residual activity ([15]; compound 0.1 µM) was 28%. It also gave a residual activity ([15]; compound 1.0 µM) of 3%, a residual activity ([15]; compound 10.0 µM) of 3% and a residual activity ([16]; compound 0.1 µM) of 89%. The residual activity ([16]; compound 1.0 µM) was 96%, the residual activity ([17]; compound 0.1 µM) was 105% and the residual activity ([17]; compound 1.0 µM) was 86%. The residual activity ([17]; compound 10.0 µM) was 71%, the residual activity ([18]; compound 0.1 µM) was 88% and the residual activity ([19]; compound 0.1 µM) was 107%. It also gave a residual activity ([19]; compound 1.0 µM) of 103%, a residual activity ([19]; compound 10.0 µM) of 96% and a residual activity ([20]; compound 0.1 µM) of 11%. The residual activity ([20]; compound 1.0 µM) was 2%, the residual activity ([20]; compound 10.0 µM) was 2% and the residual activity ([21]; compound 0.1 µM) was 114%. The residual activity ([21]; compound 1.0 µM) was 60%, the residual activity ([21]; compound 10.0 µM) was 27% and the residual activity ([22]; compound 0.1 µM) was 55%. For the same compound, the residual activity ([23]; compound 0.1 µM) was 97%, the residual activity ([24]; compound 0.1 µM) was 103% and the residual activity ([25]; compound 0.1 µM) was 106%. The residual activity ([25]; compound 1.0 µM) was 1%, the residual activity ([25]; compound 10.0 µM) was 0% and the residual activity ([26]; compound 0.1 µM) was 84%. The residual activity ([27]; compound 0.1 µM) was 100%, the residual activity ([27]; compound 1.0 µM) was 61% and the residual activity ([27]; compound 10.0 µM) was 33%. It also gave a residual activity ([28]; compound 0.1 µM) of 111%, a residual activity ([28]; compound 1.0 µM) of 100% and a residual activity ([28]; compound 10.0 µM) of 68%. It also gave a residual activity ([29]; compound 0.1 µM) of 104%, a residual activity ([29]; compound 10.0 µM) of 107% and a residual activity ([30]; compound 0.1 µM) of 68%. For the same compound, the residual activity ([30]; compound 1.0 µM) was 19%, the residual activity ([30]; compound 10.0 µM) was 2% and the residual activity ([31]; compound 0.1 µM) was 101%. The residual activity ([31]; compound 1.0 µM) was 20%, the residual activity ([31]; compound 10.0 µM) was 2% and the residual activity ([32]; compound 0.1 µM) was 91%. The residual activity ([32]; compound 1.0 µM) was 104%, the residual activity ([32]; compound 10.0 µM) was 97% and the residual activity ([33]; compound 0.1 µM) was 110%. It also gave a residual activity ([33]; compound 1.0 µM) of 88%, a residual activity ([33]; compound 10.0 µM) of 38% and a residual activity ([34]; compound 0.1 µM) of 49%. It also gave a residual activity ([34]; compound 1.0 µM) of 2%, a residual activity ([34]; compound 10.0 µM) of 1% and a residual activity ([35]; compound 0.1 µM) of 99%. For the same compound, the residual activity ([35]; compound 1.0 µM) was 96% and the residual activity ([35]; compound 10.0 µM) was 98%.

COc1cc(O)c2c(c1)/C=C/C[C@H](O)[C@H](O)C(=O)/C=C\C[C@H](C)OC2=O gave a residual activity ([1]; compound 0.1 µM) of 13%, a residual activity ([1]; compound 1.0 µM) of 2% and a residual activity ([2]; compound 0.1 µM) of 108%. The residual activity ([2]; compound 1.0 µM) was 75%, the residual activity ([3]; compound 0.1 µM) was 99% and the residual activity ([3]; compound 1.0 µM) was 55%. It also gave a residual activity ([4]; compound 0.1 µM) of 104%, a residual activity ([4]; compound 1.0 µM) of 88% and a residual activity ([5]; compound 1.0 µM) of 100%. It also gave a residual activity ([6]; compound 0.1 µM) of 88%, a residual activity ([6]; compound 1.0 µM) of 105% and a residual activity ([7]; compound 1.0 µM) of 75%. The residual activity ([8]; compound 0.1 µM) was 40%, the residual activity ([8]; compound 1.0 µM) was 4% and the residual activity ([9]; compound 1.0 µM) was 96%. For the same compound, the residual activity ([10]; compound 0.1 µM) was 90%, the residual activity ([10]; compound 1.0 µM) was 103% and the residual activity ([11]; compound 0.1 µM) was 100%. For the same compound, the residual activity ([11]; compound 1.0 µM) was 89%, the residual activity ([12]; compound 0.1 µM) was 113% and the residual activity ([12]; compound 1.0 µM) was 78%. For the same compound, the residual activity ([13]; compound 0.1 µM) was 78%, the residual activity ([13]; compound 1.0 µM) was 30% and the residual activity ([14]; compound 0.1 µM) was 129%. It also gave a residual activity ([14]; compound 1.0 µM) of 72%, a residual activity ([15]; compound 0.1 µM) of 55% and a residual activity ([15]; compound 1.0 µM) of 13%. For the same compound, the residual activity ([16]; compound 0.1 µM) was 90%, the residual activity ([16]; compound 1.0 µM) was 93% and the residual activity ([17]; compound 0.1 µM) was 100%. It also gave a residual activity ([17]; compound 1.0 µM) of 95%, a residual activity ([18]; compound 0.1 µM) of 109% and a residual activity ([18]; compound 1.0 µM) of 114%. For the same compound, the residual activity ([19]; compound 0.1 µM) was 124%, the residual activity ([19]; compound 1.0 µM) was 79% and the residual activity ([20]; compound 0.1 µM) was 87%. The residual activity ([20]; compound 1.0 µM) was 57%, the residual activity ([21]; compound 0.1 µM) was 108% and the residual activity ([21]; compound 1.0 µM) was 89%. For the same compound, the residual activity ([22]; compound 0.1 µM) was 103%, the residual activity ([22]; compound 1.0 µM) was 39% and the residual activity ([23]; compound 0.1 µM) was 112%. For the same compound, the residual activity ([23]; compound 1.0 µM) was 99%, the residual activity ([24]; compound 0.1 µM) was 91% and the residual activity ([24]; compound 1.0 µM) was 46%. The residual activity ([25]; compound 0.1 µM) was 119%, the residual activity ([25]; compound 1.0 µM) was 88% and the residual activity ([26]; compound 0.1 µM) was 113%. For the same compound, the residual activity ([26]; compound 1.0 µM) was 90%, the residual activity ([27]; compound 0.1 µM) was 107% and the residual activity ([27]; compound 1.0 µM) was 85%. For the same compound, the residual activity ([28]; compound 0.1 µM) was 110%, the residual activity ([28]; compound 1.0 µM) was 94% and the residual activity ([29]; compound 0.1 µM) was 122%. It also gave a residual activity ([29]; compound 1.0 µM) of 93%, a residual activity ([30]; compound 0.1 µM) of 101% and a residual activity ([30]; compound 1.0 µM) of 83%. For the same compound, the residual activity ([31]; compound 0.1 µM) was 114%, the residual activity ([31]; compound 1.0 µM) was 89% and the residual activity ([32]; compound 0.1 µM) was 99%. It also gave a residual activity ([32]; compound 1.0 µM) of 93%, a residual activity ([33]; compound 0.1 µM) of 96% and a residual activity ([33]; compound 1.0 µM) of 103%. It also gave a residual activity ([34]; compound 0.1 µM) of 100%, a residual activity ([34]; compound 1.0 µM) of 92% and a residual activity ([35]; compound 0.1 µM) of 118%. For the same compound, the residual activity ([35]; compound 1.0 µM) was 56%.
